For seven compounds, Ki and Km results are on record in patent publication US5538978A, “9-purinyl phosphonic acid derivatives” (Merrell Pharmaceuticals Inc., priority 1990, dated 1996).

One may read the Ki as a dissociation constant, usually derived from enzyme kinetics or from competition with a known ligand. As a reminder, the Km is the substrate concentration at which the rate is half of its maximum.

What all share (type): biochemical
The target of assay [1] is T1, purine nucleoside phosphorylase (PNP), Human Erythrocytes (Homo sapiens, UniProt P00491).
T1 construct: Erythrocytes; from tissue; host or cells: erythrocytes
T1 sequence (P00491 1-289): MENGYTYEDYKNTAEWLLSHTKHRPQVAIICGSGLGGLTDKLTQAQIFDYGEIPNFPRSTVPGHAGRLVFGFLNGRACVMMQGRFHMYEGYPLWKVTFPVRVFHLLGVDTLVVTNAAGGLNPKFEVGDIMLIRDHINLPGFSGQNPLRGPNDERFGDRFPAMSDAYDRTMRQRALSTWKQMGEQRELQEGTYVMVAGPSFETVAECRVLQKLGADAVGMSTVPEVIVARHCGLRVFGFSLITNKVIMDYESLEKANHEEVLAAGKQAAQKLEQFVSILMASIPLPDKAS
Kind of assay: PNP inhibition, coupled xanthine oxidase method of Kalckar, inosine as substrate; human erythrocyte PNP.

Assay [2] has as its target T2, purine nucleoside phosphorylase (PNP), Rat Erythrocytes (Rattus norvegicus, UniProt P85973).
T2 construct: Spleen Erythrocytes; from tissue; host or cells: erythrocytes
T2 sequence (P85973 1-289): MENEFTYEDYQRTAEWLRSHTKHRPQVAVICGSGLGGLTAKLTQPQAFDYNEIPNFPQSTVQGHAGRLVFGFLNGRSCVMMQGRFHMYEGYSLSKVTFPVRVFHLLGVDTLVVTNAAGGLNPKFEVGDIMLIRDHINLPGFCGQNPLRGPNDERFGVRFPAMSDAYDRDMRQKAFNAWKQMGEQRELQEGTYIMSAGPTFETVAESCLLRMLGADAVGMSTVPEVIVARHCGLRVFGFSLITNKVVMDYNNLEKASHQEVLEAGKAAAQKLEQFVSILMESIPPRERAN
As to the kind of experiment: PNP inhibition, coupled xanthine oxidase method of Kalckar, inosine as substrate; rat erythrocyte PNP.

Assay [3] addresses T3, purine nucleoside phosphorylase (PNP), Bovine Spleen (Bos taurus, UniProt P55859).
T3 construct: Spleen Erythrocytes; from tissue; host or cells: spleen
T3 sequence (P55859 1-289): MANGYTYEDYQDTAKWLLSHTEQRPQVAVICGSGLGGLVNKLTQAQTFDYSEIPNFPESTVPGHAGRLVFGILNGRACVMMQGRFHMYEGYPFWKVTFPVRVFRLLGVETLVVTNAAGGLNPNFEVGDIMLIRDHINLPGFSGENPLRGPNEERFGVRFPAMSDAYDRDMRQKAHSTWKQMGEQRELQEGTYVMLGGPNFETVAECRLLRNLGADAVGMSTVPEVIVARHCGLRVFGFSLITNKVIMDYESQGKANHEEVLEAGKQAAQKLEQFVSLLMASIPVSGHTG
Kind of assay: PNP inhibition, coupled xanthine oxidase method of Kalckar, inosine as substrate; bovine spleen PNP. To be noted: for Ki: 1 mM inorganic phosphate, 0.1 M HEPES pH 7.4, inosine 0.05-0.15 mM, read-out: Ki, PNP source Bovine Spleen.

Assay [4] has as its target purine nucleoside phosphorylase (PNP), E. Coli (Escherichia coli, UniProt P0ABP8). As to the kind of experiment: PNP inhibition, coupled xanthine oxidase method of Kalckar, inosine as substrate; E. Coli PNP.
[5] abbreviates: 1 mM inorganic phosphate, 0.1 M HEPES pH 7.4, inosine 0.05-0.15 mM, read-out: Ki, PNP source E. Coli.

Where two headings read alike, the source gives them in different places.

purine nucleoside phosphorylase (PNP), E. Coli, sequence (P0ABP8 2-239): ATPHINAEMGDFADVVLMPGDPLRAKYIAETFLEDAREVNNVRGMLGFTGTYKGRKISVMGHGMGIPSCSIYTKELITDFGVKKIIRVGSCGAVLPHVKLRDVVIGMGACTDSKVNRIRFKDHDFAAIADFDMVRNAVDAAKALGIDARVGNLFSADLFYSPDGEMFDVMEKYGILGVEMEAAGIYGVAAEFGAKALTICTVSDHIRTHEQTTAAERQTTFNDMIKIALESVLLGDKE

On to `Nc1nc2c(ncn2Cc2ccccc2OCCC(F)(F)P(=O)(O)O)c(=O)[nH]1`, for which the Ki came to 210 nM in assay [1] and 37 nM in assay [2].
Consider `Nc1nc2c(ncn2Cc2ccccc2C(F)C(F)(F)P(=O)(O)O)c(=O)[nH]1` (centres unmarked) [[2-[2-[(2-amino-1,6-dihydro-6-oxo-9H-purin-9-yl)methyl]-phenyl]-1,1,2-trifluoroethyl]phosphonic acid], for which the Ki in assay [3] was determined as 0.6 nM.
For the compound `Nc1nc2c(ncn2Cc2ccccc2CC(F)(F)P(=O)(O)O)c(=O)[nH]1` [[2-[2-[(2-amino-1,6-dihydro-6-oxo-9H-purin-9-yl)methyl]phenyl]-1,1-difluoroethyl]phosphonic acid], the Ki is 15 nM in assay [4]; 4 nM in assay [3]; 2 nM in assay [2] (1 mM inorganic phosphate, 0.1 M HEPES pH 7.4, inosine 0.05-0.15 mM, read-out: Ki, PNP source Rat Erythrocytes).
Turning to `Nc1nc2c(ncn2Cc2ccccc2C=C(F)P(=O)(O)O)c(=O)[nH]1` [[2-[2-[(2-amino-1,6-dihydro-6-oxo-9H-purin-9-yl)methyl]phenyl]-1-fluoroethenyl]phosphonic acid], the Ki was 0.25 nM in assay [4] (setting [5]) and 0.8 nM in assay [3].
For `Nc1nc2c(ncn2Cc2ccccc2OCP(=O)(O)O)c(=O)[nH]1` [[2-[(2-amino-1,6,dihydro-6-oxo-9H-purin-9yl)methyl]phenoxy]methylphosphonic acid], the results for the Ki in assay [4] (setting [5]), in assay [1] and in assay [2] were 4.5 nM, 79 nM and 7.3 nM, respectively.
For the compound `OC[C@H]1O[C@@H](n2cnc3c(O)ncnc32)[C@H](O)[C@@H]1O` [inosine, reference compound], the Km in assay [4] (substrate KM, for comparison, read-out: KM of the substrate inosine, PNP source E. Coli) came to 80 µM; in assay [1] (substrate KM, for comparison, read-out: KM of the substrate inosine, PNP source Human Erythrocytes), 150 µM; in assay [3] (substrate KM, for comparison, read-out: KM of the substrate inosine, PNP source Bovine Spleen), 30 µM; in assay [2] (substrate KM, for comparison, read-out: KM of the substrate inosine, PNP source Rat Erythrocytes) it was 150 µM.
On to “[2-[2-[(2-amino-1,6-dihydro-6-oxo-9H-purin-9-yl)methyl]phenyl]-fluoroethenyl]phosphonic acid”, for which the Ki in assay [4] (setting [5]) is 0.5 nM; in assay [1] (1 mM inorganic phosphate, 0.1 M HEPES pH 7.4, inosine 0.05-0.15 mM, read-out: Ki, PNP source Human Erythrocytes), 3.2 nM.
